{"source": "paper PMC3964211", "about": "“Pharmacokinetic modeling optimizes inhibition of the ‘undruggable’ EWS-FLI1 transcription factor in Ewing Sarcoma” (Oncotarget, 2013)", "key": {"A4573 cells": {"system": "A4573 cells", "assay": "Time point re-plating (colony formation) assay", "type": "cell-based", "conditions": "for Colony counts: then replated without YK-4-279", "experimental": "We determined the replating efficiency of A4573 cells after 12–84 hours of treatment with 3 ¼M YK-4-279. Cells were treated for the indicated exposure time then replated without YK-4-279 to assay for colony formation (Figure 1A).\nA4573 cells were plated at a density of 2×10^5 cells/dish in 60 mm dishes and incubated for 8 hours before treatment start with 3 ¼M racemic YK-4-279. Cells were removed with trypsin at their respective treatment time, cell suspensions were centrifuged, and cells were resuspended in 500 ¼l of media. One hundred microliters of cell suspension was plated in each 10 cm dish (triplicates) with 12 ml of media. Dishes were incubated for 1 week before staining with crystal violet stain. Colonies were counted using Nikon NIS Elements BR Software."}, "[1]": {"assay": "Plasma concentration after IP injection of various formulations in C57BL/6 mice", "type": "in vivo", "conditions": "C57BL/6 mouse plasma, 20 minutes after IP 200 mg/kg racemic mixture, 10% w/v sucrose, 1% v/v Tween 80, 5% v/v ethanol in DI water, mean ±SD, five mice", "experimental": "The poor oral bioavailability determined from the rat study caused us to focus on IV delivery. Since mice often metabolize compounds differently from rats, we also evaluated the intraperitoneal (IP) PK profle and compared it to the IV profile. We determined pharmacokinetics in C57BL/6 mice given IV (Figure 2A) or IP (Figure 2B) administrations of 75 mg/kg YK-4-279, which was the maximal solubility of compound in 20% Cremophor EL. […] In addition, drug levels in tumor were measured using SCID/bg mice with orthotopic xenografts that were treated with daily IV injections of (S)-YK-4-279 for 6 days. […] In order to determine (S)-YK-4-279 levels in the tumors, the mice were euthanized 2 hours following the fnal IV bolus dose for harvest of both tumors and plasma. […] Since the IV treatment was ineffective at reducing tumor growth, despite measurable levels in the tumor tissue, models of IP administration were used to design follow-up effcacy studies.\nThe plasma and tumor sample analysis was performed using calibration standards and Quality Control (QC) samples prepared in control rat or mouse plasma and tumor tissues. Plasma and tumor calibration standards were prepared from stock solutions of YK-4-279. The calibration standards, blanks, QC samples, and study samples were then processed by solid-liquid extraction (SLE) followed by analysis using liquid chromatography with mass spectrometry (LC-MS). The LC-MS systems used for the analysis of YK-4-279 was composed of Shimadzo prominence pump and auto-sampler (Kyoto, Japan), a Sciex API 5000 MS (Toronto, Ontario), with turbo ion spary in the positive ion mode. The samples for the analysis of total YK-4-279 were injected into a 50 × 2 mm Gemini- NX, 5 ¼m column (Phenomenex, Torrance, CA). The samples for the analysis of the specific enantiomers of YK-4-279 were injected into a 150 × 2 mm Lux Cellulose-2, 3 ¼m Phenomenex column. The transitions monitored were 366 amu to 135 amu for YK-4-279 and 369 amu to 138 amu for the YK-4-279-d3 internal standard. YK-4-279 concentrations were calculated using peak area response ratios and a regression equation constructed from the concentrations and peak area response ratios of the calibration standards. The lower limit of quantitation was 5.0 ng/mL in plasma and […] in tumor tissue. The concentration-time profiles were evaluated by compartmental modeling and non-compartmental analysis using WinNonlin (Pharsight Corporation, Mountain View, CA). The PK parameters obtained from the compartmental modeling were used in simulations to identify optimal dose level and dosing schedule for maintaining plasma concentration of (S)-YK-4-279 above 3 ¼M."}, "[2]": {"conditions": "A4573 cells, 3 ¼M YK-4-279, 84 hours exposure"}}}
{"smiles": "COc1ccc(C(=O)CC2(O)C(=O)Nc3c(Cl)ccc(Cl)c32)cc1", "note": "(stereo not shown) [YK-4-279]", "values": [{"measurement": "Decrease in colony growth between the 24 and 36 hour time points", "setting": "A4573 cells; A4573 cells, 3 ¼M YK-4-279", "result": 3, "unit": "fold"}, {"measurement": "Colony counts", "setting": "A4573 cells; A4573 cells, 3 ¼M YK-4-279, 24 hour exposure", "result": "2229±101", "unit": "colonies"}, {"measurement": "Colony counts", "setting": "A4573 cells; A4573 cells, 3 ¼M YK-4-279, 72 hours exposure", "result": 53, "unit": "colonies"}, {"measurement": "Drop in colonies from the 24 hour time point", "setting": "A4573 cells; [2]", "result": 98.9, "unit": "%"}, {"measurement": "Colony counts", "setting": "A4573 cells; [2]", "result": "25±12", "unit": "colonies"}, {"measurement": "Growth of surviving colonies replated in continuous presence of compound", "setting": "A4573 cells; colonies from 72 and 84 hours harvested and replated in continuous presence of 3 ¼M YK-4-279", "result": "no growth was observed"}, {"measurement": "(S)-YK-4-279 Concentrations", "setting": "[1]; 0.25% lecithin, 0% DMSO, 0% soybean oil", "result": "10.5 ± 8.6 ¼M"}, {"measurement": "(S)-YK-4-279 Concentrations", "setting": "[1]; 1.2% lecithin, 0% DMSO, 10% soybean oil", "result": "20.9 ± 22.8 ¼M"}, {"measurement": "(S)-YK-4-279 Concentrations", "setting": "[1]; 1.2% lecithin, 10% DMSO, 0% soybean oil", "result": "35.8 ± 45.0 ¼M"}, {"measurement": "(S)-YK-4-279 Concentrations", "setting": "[1]; 1.2% lecithin, 10% DMSO, 10% soybean oil", "result": "39.1 ± 54.6 ¼M"}, {"measurement": "(S)-YK-4-279 Concentrations", "setting": "[1]; 2.5% lecithin, 0% DMSO, 10% soybean oil", "result": "19.8 ± 20.5 ¼M"}, {"measurement": "(S)-YK-4-279 Concentrations", "setting": "[1]; 2.5% lecithin, 10% DMSO, 0% soybean oil", "result": "59.7 ± 58.6 ¼M"}, {"measurement": "(S)-YK-4-279 Concentrations", "setting": "[1]; 2.5% lecithin, 10% DMSO, 10% soybean oil", "result": "21.3 ± 11.3 ¼M"}]}
